Source: US11485733B2, “Azaquinoline derivatives” (BAYER ANIMAL HEALTH GMBH, priority 2017, dated 2022)
“And” between values parts separate entries of the source, which are not always exact repeats. Equal entries are not always repeated.

How the values were obtained:
[1] = target: D. immitis Slo-1 (Dirofilaria immitis, UniProt I0DFK5); test: D. immitis Slo-1, action at a recombinant CHO cell line (membrane potential, FLIPR); type: cell-based
[2] = tested on: Nippostrongylus brasiliensis; test: Nippostrongylus brasiliensis (NIPOBR) adult worms, acetylcholine esterase readout; conditions: read-out: activity (reduction of AChE compared to negative control); for inhibition at 1 µg/mL: at 1 μg/ml (1 ppm); for inhibition at 10 µg/mL: at 10 μg/ml (10 ppm)
Description: In Vitro Assay 3: Nippostrongylus brasiliensis (NIPOBR)
Adult Nippostrongylus brasiliensis were washed with saline buffer containing 100 U/ml penicillin, 0.1 mg/ml streptomycin and 2.5 μg/ml amphotericin B. Test compounds were dissolved in DMSO and worms were incubated in medium in a final concentration of 10 μg/ml (10 ppm) respectively 1 μg/ml (1 ppm). An aliquot of the medium was used to determine the acetylcholine esterase activity in comparison to a negative control. The principle of measuring acetylcholine esterase as readout for anthelmintic activity was described in Rapson et al (1986) and Rapson et al (1987).

[3] = tested on: Dirofilaria immitis microfilariae; test: Dirofilaria immitis microfilariae (DIROIM L1) motility; conditions: 72 h, read-out: EC50 (reduction of motility)
[4] = tested on: Dirofilaria immitis; test: Dirofilaria immitis (DIROIM L4) larval motility; conditions: 72 h, read-out: EC50 (reduction of motility)
[5] = tested on: Cooperia curticei; test: Cooperia curticei larval mortality; conditions: 120 h, read-out: activity (percentage of larval mortality)
Description: In Vitro Assay 6: Cooperia curticei
Solvent: Dimethyl Sulfoxide
Approximately 40 nematode larvae (Cooperia curticei) are transferred into a test tube containing the compound solution.
After 5 days percentage of larval mortality is recorded. 100% efficacy means all larvae are killed; 0% efficacy means no larvae are killed.

[6] = tested on: Haemonchus contortus; test: Haemonchus contortus larval mortality; conditions: 120 h, read-out: activity (percentage of larval mortality)
Description: In Vitro Assay 7: Haemonchus contortus
Solvent: Dimethyl Sulfoxide
Approximately 40 larvae of the red stomach worm (Haemonchus contortus) are transferred into a test tube containing compound solution.
After 5 days the percentage of larval mortality is recorded. 100% efficacy means all larvae are killed, 0% efficacy means no larvae are killed.

[7] = tested on: Litomosoides sigmodontis third-stage larvae; test: Litomosoides sigmodontis (LTMOSI L3) larval motility; conditions: 72 h, read-out: EC50 (reduction of motility)
Description: In Vitro Assay 6: Litomosoides sigmodontis (LTMOSI L3)
10 Litomosoides sigmodontis third-stage larvae, which were freshly isolated from the pleural cavity of an infected rodent, were added to wells of a microtitre plate containing a nutrient medium and the test compound in DMSO. Compounds were tested in concentration-response assay in duplicate. Larvae exposed to DMSO and no test compounds were used as negative controls. Larvae were evaluated after 72 h of incubation with the compound. Efficacy was determined as the reduction of motility in comparison to the negative control. Based on the evaluation of a wide concentration range, concentration-response curves as well as EC50-values were calculated.

[8] = target: C. elegans Slo-1a (Caenorhabditis elegans, UniProt Q95V25); conditions: pE50 (negative decadic logarithm of EC50), CHO cells expressing C. elegans Slo-1a; voltage sensitive dye, 70 mM KCl
Sequence of C. elegans Slo-1a (Q95V25 whole entry): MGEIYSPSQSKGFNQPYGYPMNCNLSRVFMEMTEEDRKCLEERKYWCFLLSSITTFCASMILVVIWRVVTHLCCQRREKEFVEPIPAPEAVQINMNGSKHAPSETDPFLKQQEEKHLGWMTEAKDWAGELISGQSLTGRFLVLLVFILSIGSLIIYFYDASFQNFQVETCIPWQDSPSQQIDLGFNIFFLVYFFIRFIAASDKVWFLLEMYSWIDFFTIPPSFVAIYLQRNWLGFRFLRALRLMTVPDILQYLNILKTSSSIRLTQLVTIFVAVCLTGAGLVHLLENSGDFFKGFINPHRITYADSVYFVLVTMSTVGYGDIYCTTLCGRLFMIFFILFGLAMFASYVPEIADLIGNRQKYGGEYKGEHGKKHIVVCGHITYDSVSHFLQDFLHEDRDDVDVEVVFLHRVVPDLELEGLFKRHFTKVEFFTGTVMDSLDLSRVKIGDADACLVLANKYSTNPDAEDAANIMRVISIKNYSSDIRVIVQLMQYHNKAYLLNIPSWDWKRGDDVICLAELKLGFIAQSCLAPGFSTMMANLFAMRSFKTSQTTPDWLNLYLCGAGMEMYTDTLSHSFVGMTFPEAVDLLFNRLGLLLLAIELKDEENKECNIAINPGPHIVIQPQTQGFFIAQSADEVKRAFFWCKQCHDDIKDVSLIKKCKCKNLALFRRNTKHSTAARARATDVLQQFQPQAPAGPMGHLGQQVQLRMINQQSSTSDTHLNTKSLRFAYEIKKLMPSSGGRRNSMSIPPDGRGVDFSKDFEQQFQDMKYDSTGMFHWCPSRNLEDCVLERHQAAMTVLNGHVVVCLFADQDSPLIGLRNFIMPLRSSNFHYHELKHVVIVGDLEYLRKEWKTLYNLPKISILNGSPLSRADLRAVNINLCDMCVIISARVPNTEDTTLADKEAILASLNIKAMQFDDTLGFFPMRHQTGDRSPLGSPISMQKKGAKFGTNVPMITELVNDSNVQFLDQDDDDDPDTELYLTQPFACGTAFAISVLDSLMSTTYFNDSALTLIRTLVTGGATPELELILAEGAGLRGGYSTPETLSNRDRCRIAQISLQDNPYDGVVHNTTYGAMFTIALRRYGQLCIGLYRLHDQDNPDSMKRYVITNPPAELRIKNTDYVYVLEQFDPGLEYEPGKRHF

Sequence of D. immitis Slo-1 (I0DFK5 1-1119): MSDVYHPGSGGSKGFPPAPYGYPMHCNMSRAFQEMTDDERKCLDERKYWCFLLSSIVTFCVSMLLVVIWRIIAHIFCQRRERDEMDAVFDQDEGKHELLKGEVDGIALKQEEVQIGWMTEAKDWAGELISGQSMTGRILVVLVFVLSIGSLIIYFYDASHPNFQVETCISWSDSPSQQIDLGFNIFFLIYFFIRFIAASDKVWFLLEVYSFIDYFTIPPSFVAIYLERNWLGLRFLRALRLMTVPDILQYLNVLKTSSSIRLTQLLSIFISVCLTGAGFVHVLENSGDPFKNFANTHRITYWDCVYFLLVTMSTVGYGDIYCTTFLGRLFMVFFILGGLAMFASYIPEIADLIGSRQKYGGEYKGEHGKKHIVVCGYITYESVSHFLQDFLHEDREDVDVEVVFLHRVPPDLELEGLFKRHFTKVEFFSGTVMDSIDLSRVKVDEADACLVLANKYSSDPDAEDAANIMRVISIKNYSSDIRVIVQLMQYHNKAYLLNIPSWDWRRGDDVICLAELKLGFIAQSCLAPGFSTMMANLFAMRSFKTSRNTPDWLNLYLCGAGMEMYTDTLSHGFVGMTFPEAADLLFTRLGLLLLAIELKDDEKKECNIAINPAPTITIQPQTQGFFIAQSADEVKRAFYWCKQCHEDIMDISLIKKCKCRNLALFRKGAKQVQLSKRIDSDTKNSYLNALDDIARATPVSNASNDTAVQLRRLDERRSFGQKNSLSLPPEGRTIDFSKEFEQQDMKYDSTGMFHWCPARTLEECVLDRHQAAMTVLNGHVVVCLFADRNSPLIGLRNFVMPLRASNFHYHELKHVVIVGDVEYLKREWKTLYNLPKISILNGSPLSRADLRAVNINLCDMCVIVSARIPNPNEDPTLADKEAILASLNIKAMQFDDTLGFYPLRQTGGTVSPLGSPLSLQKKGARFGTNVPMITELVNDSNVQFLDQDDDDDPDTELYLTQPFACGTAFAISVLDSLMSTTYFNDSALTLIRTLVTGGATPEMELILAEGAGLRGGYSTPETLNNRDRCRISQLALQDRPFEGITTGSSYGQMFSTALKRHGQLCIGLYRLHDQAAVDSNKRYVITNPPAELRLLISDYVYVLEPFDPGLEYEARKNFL

In the case of `CN(C)c1c(C(=O)N[C@H]2CCOc3ccccc32)cnc2c(-c3cc(Cl)cc(Cl)c3)nccc12` [Example T1-1, 8-(3,5-Dichlorophenyl)-N-[(4S)-3,4-dihydro-2H-chromen-4-yl]-4-(dimethylamino)-1,7-naphthyridine-3-carboxamide], the EC50 [1] is reported as 0.0316 to 0.316 µM, the inhibition at 1 µg/mL [2] is reported as over 80% and the EC50 [3] is reported as under 0.1 µg/mL. For the same compound, the EC50 [4] was under 0.1 µg/mL, the mortality at 4 ppm [5] was 100% and the mortality at 20 ppm [5] was 100%. For the same compound, the mortality at 20 ppm [6] was 100%, the EC50 [7] was under 0.1 µg/mL and the EC50 [8] was 0.00316 to 0.0316 µM.

Compound `O=C(N[C@H]1CCOc2ccccc21)c1cnc2c(-c3cccc(Cl)c3Cl)nccc2c1N1CCOCC1` [Example T1-4, 8-(2,3-Dichlorophenyl)-N-[(4S)-3,4-dihydro-2H-chromen-4-yl]-4-(morpholin-4-yl)-1,7-naphthyridine-3-carboxamide] has an EC50 [1] of 0.0316 to 0.316 µM, an inhibition at 1 µg/mL [2] of over 80% and an inhibition at 10 µg/mL [2] of over 80%. The EC50 [3] was under 0.1 µg/mL, the EC50 [4] was under 0.1 µg/mL and the mortality at 4 ppm [5] was 100%. The EC50 [7] was under 0.1 µg/mL and the EC50 [8] was 0.00316 to 0.0316 µM.

For `O=C(N[C@H]1CCOc2ccccc21)c1cnc2c(-c3cc(F)cc(F)c3F)nccc2c1N1CCOCC1` [Example T1-5, N-[(4S)-3,4-dihydro-2H-1-benzopyran-4-yl]-4-(morpholin-4-yl)-8-(2,3,5-trifluorophenyl)-1,7-naphthyridine-3-carboxamide], the EC50 [1] was 0.0316 to 0.316 µM, the inhibition at 1 µg/mL [2] was over 80% and the inhibition at 10 µg/mL [2] was over 80%. It also gave an EC50 [3] of under 0.1 µg/mL, an EC50 [4] of under 0.1 µg/mL and a mortality at 4 ppm [5] of 100%. It also gave a mortality at 20 ppm [5] of 100%, a mortality at 20 ppm [6] of 80% and an EC50 [7] of under 0.1 µg/mL. It also gave an EC50 [8] of 0.00316 to 0.0316 µM.

`O=C(N[C@H]1CCOc2ccccc21)c1cnc2c(-c3cc(Cl)cc(Cl)c3Cl)nccc2c1N1CCOCC1` [Example T1-6, N-[(4S)-3,4-dihydro-2H-chromen-4-yl]-4-(morpholin-4-yl)-8-(2,3,5-trichlorophenyl)-1,7-naphthyridine-3-carboxamide] gave an EC50 [1] of 0.00316 to 0.0316 µM, an inhibition at 1 µg/mL [2] of over 80% and an EC50 [3] of under 0.1 µg/mL. The EC50 [4] was under 0.1 µg/mL, the mortality at 4 ppm [5] was 100% and the mortality at 20 ppm [5] was 100%. The mortality at 20 ppm [6] was 100% and the EC50 [8] was under 0.00316 µM.

For `CN(C)c1c(C(=O)N[C@H]2CCOc3ccccc32)cnc2c(-c3cccc(Cl)c3Cl)ncc(F)c12` [Example T1-10, 8-(2,3-dichlorophenyl)-N-[(4S)-3,4-dihydro-2H-1-benzopyran-4-yl]-4-(dimethylamino)-5-fluoro-1,7-naphthyridine-3-carboxamide], the EC50 [1] was 0.0316 to 0.316 µM, the inhibition at 10 µg/mL [2] was over 80% and the EC50 [3] was under 0.1 µg/mL. It also gave an EC50 [4] of under 0.1 µg/mL, an EC50 [7] of under 0.1 µg/mL and an EC50 [8] of 0.00316 to 0.0316 µM.

With `CN(C)c1c(C(=O)N[C@H]2CCOc3ccccc32)cnc2c(-c3cc(F)cc(F)c3F)ncc(F)c12` [Example T1-12, N-[(4S)-3,4-dihydro-2H-1-benzopyran-4-yl]-4-(dimethylamino)-5-fluoro-8-(2,3,5-trifluorophenyl)-1,7-naphthyridine-3-carboxamide] the EC50 [1] was 0.0316 to 0.316 µM, the inhibition at 1 µg/mL [2] was over 80% and the inhibition at 10 µg/mL [2] was over 80%. For the same compound, the EC50 [3] was under 0.1 µg/mL, the EC50 [4] was under 0.1 µg/mL and the EC50 [7] was under 0.1 µg/mL.

Work on `CN(C)c1c(C(=O)N[C@H]2CCOc3ccccc32)cnc2c(-c3cc(Cl)cc(Cl)c3)cncc12` [Example T2-1, 8-(3,5-Dichlorophenyl)-N-[(4S)-3,4-dihydro-2H-chromen-4-yl]-4-(dimethylamino)-1,6-naphthyridine-3-carboxamide] yielded an EC50 [1] of 0.0316 to 0.316 µM, an inhibition at 1 µg/mL [2] of over 80% and an EC50 [3] of under 0.1 µg/mL. The EC50 [4] was under 0.1 µg/mL, the mortality at 4 ppm [5] was 100% and the mortality at 20 ppm [5] was 100%. The mortality at 20 ppm [6] was 100% and the EC50 [8] was 0.00316 to 0.0316 µM.

For `O=C(N[C@H]1CCOc2ccccc21)c1cnc2c(-c3cccc(Cl)c3Cl)cncc2c1N1CCOCC1` [Example T2-3, 8-(2,3-Dichlorophenyl)-N-[(4S)-3,4-dihydro-2H-chromen-4-yl]-4-(morpholin-4-yl)-1,6-naphthyridine-3-carboxamide], the EC50 [1] was 0.00316 to 0.0316 µM, the inhibition at 1 µg/mL [2] was over 80% and the EC50 [3] was under 0.1 µg/mL. The EC50 [4] was under 0.1 µg/mL, the mortality at 4 ppm [5] was 80% and the mortality at 20 ppm [5] was 100%. The mortality at 20 ppm [6] was 90% and the EC50 [8] was 0.00316 to 0.0316 µM.

Compound `COc1ncc(-c2cc(Cl)cc(Cl)c2)c2ncc(C(=O)N[C@H]3CCOc4ccccc43)c(N(C)C)c12` [Example T2-5, 8-(3,5-dichlorophenyl)-N-[(4S)-3,4-dihydro-2H-1-benzopyran-4-yl]-4-(dimethylamino)-5-methoxy-1,6-naphthyridine-3-carboxamide] has an EC50 [1] of 0.0316 to 0.316 µM, an inhibition at 1 µg/mL [2] of over 80% and an inhibition at 10 µg/mL [2] of over 80%. For the same compound, the EC50 [3] was under 0.1 µg/mL, the EC50 [4] was under 0.1 µg/mL and the EC50 [7] was under 0.1 µg/mL.

`COc1ncc(-c2cccc(Cl)c2Cl)c2ncc(C(=O)N[C@H]3CCOc4ccccc43)c(N(C)C)c12` [Example T2-12, 8-(2,3-dichlorophenyl)-N-[(4S)-3,4-dihydro-2H-1-benzopyran-4-yl]-4-(dimethylamino)-5-methoxy-1,6-naphthyridine-3-carboxamide] gave an EC50 [1] of 0.0316 to 0.316 µM, an inhibition at 1 µg/mL [2] of over 80% and an inhibition at 10 µg/mL [2] of over 80%. It also gave an EC50 [3] of under 0.1 µg/mL, an EC50 [4] of under 0.1 µg/mL and an EC50 [7] of under 0.1 µg/mL. It also gave an EC50 [8] of under 0.00316 µM.

Compound `CN(C)c1c(C(=O)N[C@H]2CCOc3ccccc32)cnc2c(-c3cc(Cl)cc(Cl)c3)ccnc12` [Example T3-1, 8-(3,5-Dichlorophenyl)-N-[(4S)-3,4-dihydro-2H-chromen-4-yl]-4-(dimethylamino)-1,5-naphthyridine-3-carboxamide] has an EC50 [1] of 0.00316 to 0.0316 µM, an inhibition at 1 µg/mL [2] of over 80% and an EC50 [3] of under 0.1 µg/mL. For the same compound, the EC50 [4] was under 0.1 µg/mL, the mortality at 4 ppm [5] was 100% and the mortality at 20 ppm [5] was 100%. The mortality at 20 ppm [6] was 100%, the EC50 [7] was under 0.1 µg/mL and the EC50 [8] was 0.00316 to 0.0316 µM and < 0.00316 µM.

`CN(C)c1c(C(=O)N[C@H]2CCOc3ccccc32)cnc2c(-c3cccc(Cl)c3Cl)ccnc12` [Example T3-3, 8-(2,3-Dichlorophenyl)-N-[(4S)-3,4-dihydro-2H-chromen-4-yl]-4-(dimethylamino)-1,5-naphthyridine-3-carboxamide] gave an EC50 [1] of 0.00316 to 0.0316 µM, an inhibition at 1 µg/mL [2] of over 80% and an EC50 [3] of under 0.1 µg/mL. For the same compound, the EC50 [4] was under 0.1 µg/mL, the mortality at 4 ppm [5] was 100% and the mortality at 20 ppm [5] was 100%. It also gave a mortality at 20 ppm [6] of 100%, an EC50 [7] of under 0.1 µg/mL and an EC50 [8] of under 0.00316 µM.

With `O=C(N[C@H]1CCOc2ccccc21)c1cnc2c(-c3cccc(Cl)c3Cl)ccnc2c1N1CCOCC1` [Example T3-4, 8-(2,3-Dichlorophenyl)-N-[(4S)-3,4-dihydro-2H-chromen-4-yl]-4-(morpholin-4-yl)-1,5-naphthyridine-3-carboxamide] the EC50 [1] was 0.00316 to 0.0316 µM, the inhibition at 1 µg/mL [2] was over 80% and the EC50 [3] was under 0.1 µg/mL. It also gave an EC50 [4] of under 0.1 µg/mL, a mortality at 4 ppm [5] of 100% and a mortality at 20 ppm [5] of 100%. The mortality at 20 ppm [6] was 100% and the EC50 [8] was under 0.00316 µM.

In the case of `COc1cnc2c(N(C)C)c(C(=O)N[C@H]3CCOc4ccccc43)cnc2c1-c1cc(F)cc(F)c1F` [Example T3-15, N-[(4S)-3,4-dihydro-2H-1-benzopyran-4-yl]-4-(dimethylamino)-7-methoxy-8-(2,3,5-trifluorophenyl)-1,5-naphthyridine-3-carboxamide], the EC50 [1] is reported as 0.00316 to 0.0316 µM, the inhibition at 1 µg/mL [2] is reported as over 80% and the inhibition at 10 µg/mL [2] is reported as over 80%. The EC50 [3] was under 0.1 µg/mL, the EC50 [4] was under 0.1 µg/mL and the EC50 [7] was under 0.1 µg/mL.

`CN(C)c1c(C(=O)N[C@H]2CCOc3ccccc32)cnc2c(-c3cccc(Cl)c3Cl)c(F)cnc12` [Example T3-17, 8-(2,3-dichlorophenyl)-N-[(4S)-3,4-dihydro-2H-1-benzopyran-4-yl]-4-(dimethylamino)-7-fluoro-1,5-naphthyridine-3-carboxamide] was tested, and the EC50 [1] was 0.00316 to 0.0316 µM, the inhibition at 1 µg/mL [2] was over 80% and the inhibition at 10 µg/mL [2] was over 80%. For the same compound, the EC50 [3] was under 0.1 µg/mL, the EC50 [4] was under 0.1 µg/mL and the EC50 [7] was under 0.1 µg/mL.

In the case of `O=C(N[C@H]1CCOc2ccccc21)c1cnc2c(-c3cc(F)cc(F)c3F)c(F)cnc2c1N1CCOCC1` [Example T3-20, N-[(4S)-3,4-dihydro-2H-1-benzopyran-4-yl]-7-fluoro-4-(morpholin-4-yl)-8-(2,3,5-trifluorophenyl)-1,5-naphthyridine-3-carboxamide], the EC50 [1] is reported as 0.00316 to 0.0316 µM, the inhibition at 1 µg/mL [2] is reported as over 80% and the inhibition at 10 µg/mL [2] is reported as over 80%. It also gave an EC50 [3] of under 0.1 µg/mL, an EC50 [4] of under 0.1 µg/mL and an EC50 [7] of under 0.1 µg/mL.

`COc1c(C(=O)N[C@H]2CCOc3ccccc32)nnc2c(-c3cc(Cl)cc(Cl)c3)cccc12` [Example T5-5, 8-(3,5-Dichlorophenyl)-N-[(4S)-3,4-dihydro-2H-chromen-4-yl]-4-methoxycinnoline-3-carboxamide] showed an EC50 [1] of 0.0316 to 0.316 µM, an inhibition at 1 µg/mL [2] of over 80% and an EC50 [3] of under 0.1 µg/mL. The EC50 [4] was under 0.1 µg/mL, the mortality at 4 ppm [5] was 80% and the mortality at 20 ppm [5] was 80%. The mortality at 20 ppm [6] was 80% and the EC50 [8] was 0.00316 to 0.0316 µM.
